These are literature values, as cited in patent US20140234410A1, “COMBINATION PRODUCTS” (SIGMOID PHARMA LTD., priority 2004, published 2014).

SMILES strings stand for the structures. Some results are limits rather than exact numbers.

For data set [1] the following is noted: in vivo.
In the next data set the test system is thrombocythemia. The following applies: co-administrated with a small dose of aspirin; people with thrombocythemia.
The conditions of data set [2]: adults.
The conditions of data set [3]: in vivo. This is another data set of the same source.
The subject of a further data set is tumour growth. The following applies: simultaneous administration with R-verapamil.

Take `COc1ccc2c(c1)[C@]13CCCC[C@@H]1[C@H](C2)N(C)CC3` [Dextromethorphan]: the “adverse effects, share of people” value in data set [1] was “less than 1%”.
Consider `NC(=O)NO` [Hydroxyurea], for which the solubility in water entry was “freely soluble”. The “preventing serious bleeding and other complications versus anagrelide hydrochloride” value with thrombocythemia was “more effective”.
For the compound `COCCOC(=O)C1=C(C)NC(C)=C(C(=O)OC(C)C)C1c1cccc([N+](=O)[O-])c1` (stereo not shown) [Nimodipine], the solubility in water entry was “practically insoluble”.
`Cn1c(=O)c2[nH]cnc2n(C)c1=O` [Theophylline]: the biological half life in data set [2] is listed as below 6 hours. For the same compound, in data set [3], the “concentrations with anti-inflammatory and immunostimulatory effect” value is 5 to 10 mg/L.
Consider `CN/C(=N/CCSCc1nc[nH]c1C)NC#N` [cimetidine], for which the bioavailability of nimodipine result in the data set with cytochrome P450 (effect of the co-administered drug) is listed as “approximate doubling”.
Take `CN(CCOc1ccc(CC2SC(=O)NC2=O)cc1)c1ccccn1` (stereo not shown) [rosiglitazone, Rosiglitazone]: the “solubility as a function of pH” value (physiological range) was “decreases with increasing pH”.
For the compound `CC/C(=C(\c1ccccc1)c1ccc(OCCN(C)C)cc1)c1ccccc1` [tamoxifen, Tamoxifen], in the data set with tumour growth, the tumour growth result is reported as “significantly decreases”.
With `CCCC(CCC)C(=O)O` [valproic acid], in the data set on cytochrome P450 (two drugs administered in combination), the “plasma concentrations of nimodipine” value is listed as “increased”.
